# From paper PMC4184702 (Pharmacology Research & Perspectives, 2014)
# Entries after “also recorded” stand apart in the source; their conditions may differ.
# Key:
# [1] = molecular target: T1, DAT: Dopamine Transporter (Homo sapiens, UniProt Q01959); experiment: PDSP primary binding, DAT; details: n = 4, read-out: Inhibition (primary binding competition efficacy), DAT
# T1 construct: purchased NIMH Psychoactive Drug Screening Program (PDSP)
# Description: (§1) For experimental details, please refer to the Psychoactive Drug Screening Program (PDSP) web site http://pdsp.med.unc.edu/.
# (§2) ^a The default concentration for primary binding experiments is 10 µM (n = 4). ^b Negative inhibition represents a stimulation of binding. ^c BZPR: Benzodiazepine Receptors (rat brain site). ^d DOR: Delta Opioid Receptor; KOR: Kappa Opioid Receptor; MOR: Mu Opioid Receptor. ^e DAT: Dopamine Transporter; NET: Norepinephrine Transporter; SERT: Serotonin Transporter. ^f NMDA: N-methyl-D-aspartate receptor.
# β1 adrenergic receptor = molecular target: T2, β1 adrenergic receptor (Homo sapiens, UniProt P08588); experiment: PDSP primary binding, β1; details: n = 4, read-out: Inhibition (primary binding competition efficacy), β1
# T2 construct: purchased NIMH Psychoactive Drug Screening Program (PDSP)
# T2 sequence (P08588 whole entry): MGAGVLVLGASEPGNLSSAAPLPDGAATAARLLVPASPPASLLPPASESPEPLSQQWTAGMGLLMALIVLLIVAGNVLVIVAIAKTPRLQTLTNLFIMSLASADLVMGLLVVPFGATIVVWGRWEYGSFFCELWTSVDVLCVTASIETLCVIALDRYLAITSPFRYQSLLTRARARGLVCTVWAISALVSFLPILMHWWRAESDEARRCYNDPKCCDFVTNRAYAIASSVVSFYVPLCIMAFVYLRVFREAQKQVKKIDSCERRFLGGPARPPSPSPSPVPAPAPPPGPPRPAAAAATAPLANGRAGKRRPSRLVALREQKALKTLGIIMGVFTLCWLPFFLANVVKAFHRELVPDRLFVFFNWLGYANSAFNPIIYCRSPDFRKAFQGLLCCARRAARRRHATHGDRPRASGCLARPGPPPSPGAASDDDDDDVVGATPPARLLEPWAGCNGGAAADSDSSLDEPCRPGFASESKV
# Description: as §1, §2
# M4 muscarinic receptor = molecular target: T3, M4 muscarinic receptor (Homo sapiens, UniProt P08173); experiment: PDSP primary binding, M4; details: n = 4, read-out: Inhibition (primary binding competition efficacy), M4
# T3 construct: purchased NIMH Psychoactive Drug Screening Program (PDSP)
# T3 sequence (P08173 whole entry): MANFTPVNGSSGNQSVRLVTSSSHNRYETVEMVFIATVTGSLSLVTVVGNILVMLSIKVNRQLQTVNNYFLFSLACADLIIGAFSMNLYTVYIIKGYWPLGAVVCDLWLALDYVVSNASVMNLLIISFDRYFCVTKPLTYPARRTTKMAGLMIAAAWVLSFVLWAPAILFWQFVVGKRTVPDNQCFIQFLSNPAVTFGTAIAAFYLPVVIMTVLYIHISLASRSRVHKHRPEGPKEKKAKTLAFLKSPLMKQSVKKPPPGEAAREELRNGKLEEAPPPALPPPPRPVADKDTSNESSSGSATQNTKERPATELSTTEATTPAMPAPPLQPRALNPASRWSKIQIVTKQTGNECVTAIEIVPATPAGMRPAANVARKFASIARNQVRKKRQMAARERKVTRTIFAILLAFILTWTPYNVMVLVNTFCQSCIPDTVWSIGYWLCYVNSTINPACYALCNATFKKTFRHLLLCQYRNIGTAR
# Description: as §1, §2
# H1 histamine receptor = molecular target: T4, H1 histamine receptor (Homo sapiens, UniProt P35367); experiment: PDSP primary binding, H1; details: n = 4, read-out: Inhibition (primary binding competition efficacy), H1
# T4 construct: purchased NIMH Psychoactive Drug Screening Program (PDSP)
# T4 sequence (P35367 whole entry): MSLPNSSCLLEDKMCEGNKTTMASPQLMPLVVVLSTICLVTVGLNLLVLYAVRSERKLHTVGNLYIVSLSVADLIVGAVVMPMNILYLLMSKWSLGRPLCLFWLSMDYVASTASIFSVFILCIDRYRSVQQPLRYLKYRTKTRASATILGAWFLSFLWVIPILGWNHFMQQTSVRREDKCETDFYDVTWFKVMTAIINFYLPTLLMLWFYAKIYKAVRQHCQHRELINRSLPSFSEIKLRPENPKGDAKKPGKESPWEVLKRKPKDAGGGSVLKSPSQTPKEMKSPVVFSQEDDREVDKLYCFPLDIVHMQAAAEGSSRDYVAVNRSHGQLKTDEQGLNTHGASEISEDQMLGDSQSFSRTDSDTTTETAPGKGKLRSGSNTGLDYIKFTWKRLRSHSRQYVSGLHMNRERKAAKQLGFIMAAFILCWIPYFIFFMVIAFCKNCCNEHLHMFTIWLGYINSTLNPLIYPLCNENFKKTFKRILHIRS
# Description: as §1, §2
# human α7-nAChRs = molecular target: T5, human α7-nAChRs (Homo sapiens, UniProt P36544); experiment: Whole-cell current recording, SH-EP1-hα7 cells; format: cell-based; details: 1 μmol/L
# T5 construct: expressed in transfected cells; host or cells: SH-EP1 human epithelial cells (SH-EP1-hα7)
# T5 sequence (P36544 23-502): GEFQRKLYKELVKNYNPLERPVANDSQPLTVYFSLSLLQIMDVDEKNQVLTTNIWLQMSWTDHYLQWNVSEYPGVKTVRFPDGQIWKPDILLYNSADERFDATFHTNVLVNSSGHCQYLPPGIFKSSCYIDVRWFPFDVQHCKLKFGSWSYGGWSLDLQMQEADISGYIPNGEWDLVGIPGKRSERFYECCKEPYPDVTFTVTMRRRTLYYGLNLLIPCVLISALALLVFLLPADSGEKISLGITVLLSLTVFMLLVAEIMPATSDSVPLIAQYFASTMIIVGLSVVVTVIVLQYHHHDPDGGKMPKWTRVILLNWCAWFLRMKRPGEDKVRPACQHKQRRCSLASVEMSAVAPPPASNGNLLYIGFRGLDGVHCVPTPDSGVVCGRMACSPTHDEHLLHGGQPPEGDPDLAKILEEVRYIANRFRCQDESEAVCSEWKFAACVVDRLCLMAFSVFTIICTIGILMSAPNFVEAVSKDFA
# Description: Glass microelectrodes made with 3–5 MΩ resistance between pipette and extracellular solutions were used to obtain >1 GΩ seals on the cell surface just prior to conversion into standard whole-cell current recording mode by applying suction to the pipette. After allowing exchange between the pipette solution and the cytosol for 5 10 min, cells with attached pipettes were lifted gently from the bottom of the culture dish via micromanipulation of the pipette to improve kinetics of solution exchange around the cell. Access resistance (Ra) was measured and accepted if it was less than 20 MΩ. Pipette and whole-cell capacitance were both minimized, and series resistance was compensated routinely to 80%. Cells were voltage-clamped at −60 mV, and inward currents induced by indicated nicotinic agonists at the specified concentrations were measured (200B amplifier; Molecular Devices, Sunnyvale, CA). […] Data acquisition and analyses were conducted using pClamp9.2 (Molecular Devices), and results were plotted by using Origin 5.0 (OriginLab Corp., North Hampton, MA). All experiments were performed at room temperature (22 ± 1°C).
# The external solution for SH-EP1 cell recording contained 120 mmol/L NaCl, 5 mmol/L KCl, 2 mmol/L MgCl2, 2 mmol/L CaCl2, 25 mmol/L D-glucose, and 10 mmol/L HEPES<< HEPES >>, pH 7.4 (Tris-base). For conventional whole-cell recording, the pipette solution contained 110 mmol/L Tris-phosphate dibasic, 28 mmol/L Tris-base, 11 mmol/L EGTA<< EGTA >>, 2 mmol/L MgCl2, 0.5 mmol/L CaCl2, and 4 mmol/L Na-ATP at pH 7.3. Drugs (standard compounds were obtained from Sigma Chemical, St. Louis, MO) were delivered to the recorded cell by a computer-controlled perfusion system (SF-77B Perfusion Fast Step, Warner Instruments Incorporated, A Harvard Bioscience Company, Holliston, MA), allowing the recorded cell can be completely surrounded by the applied drug within 20 msec. The interval between drug applications (2 min) was optimized specifically to ensure stability of nAChR responsiveness (without functional rundown).
# α1B adrenergic receptor = molecular target: T6, α1B adrenergic receptor (Homo sapiens, UniProt P35368); experiment: PDSP primary binding, α1B; details: n = 4, read-out: Inhibition (primary binding competition efficacy), α1B
# T6 construct: purchased NIMH Psychoactive Drug Screening Program (PDSP)
# T6 sequence (P35368 whole entry): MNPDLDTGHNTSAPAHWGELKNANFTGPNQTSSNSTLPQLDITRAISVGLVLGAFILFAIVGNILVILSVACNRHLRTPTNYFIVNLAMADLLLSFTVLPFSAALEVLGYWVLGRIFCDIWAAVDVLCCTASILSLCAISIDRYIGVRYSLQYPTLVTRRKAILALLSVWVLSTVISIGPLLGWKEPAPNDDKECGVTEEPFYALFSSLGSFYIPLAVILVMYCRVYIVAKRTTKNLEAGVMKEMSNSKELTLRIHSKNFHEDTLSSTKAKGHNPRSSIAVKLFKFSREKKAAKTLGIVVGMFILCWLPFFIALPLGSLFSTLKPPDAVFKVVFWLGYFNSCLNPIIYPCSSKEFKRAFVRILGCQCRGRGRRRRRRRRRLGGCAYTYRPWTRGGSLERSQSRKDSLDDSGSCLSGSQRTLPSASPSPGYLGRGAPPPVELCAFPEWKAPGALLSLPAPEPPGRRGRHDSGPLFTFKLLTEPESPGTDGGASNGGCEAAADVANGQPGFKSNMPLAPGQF
# Description: as §1, §2
# Male Balb/CJ mice = experiment: Forced swim test; format: in vivo, mouse
# Source text: Male Balb/CJ mice (Jackson Laboratories, Bar Harbor, ME) were used in the forced swim test (FST). Upon receipt, mice were assigned unique identification numbers (tail marked) and were group-housed in OptiMICE ventilated cages. Mice were acclimated to the colony room for at least 1 week prior to drug administration. Mice were 8–10 weeks of age at time of FST.
# Procedures have been previously described (Porsolt et al. [1977]). Naïve mice were individually placed into clear glass cylinders (15 cm tall × 10 cm wide, 1 L beakers) containing 23 ± 1°C water 12 cm deep (∼800 mL). […] Thirty minutes following the administration, mice were placed in the water, and the time the animal spent immobile was recorded over a 6-min trial. Immobility was defined as the postural position of floating in the water. Only one session is required for the forced swim test in mice.
# T1 sequence (Q01959 whole entry): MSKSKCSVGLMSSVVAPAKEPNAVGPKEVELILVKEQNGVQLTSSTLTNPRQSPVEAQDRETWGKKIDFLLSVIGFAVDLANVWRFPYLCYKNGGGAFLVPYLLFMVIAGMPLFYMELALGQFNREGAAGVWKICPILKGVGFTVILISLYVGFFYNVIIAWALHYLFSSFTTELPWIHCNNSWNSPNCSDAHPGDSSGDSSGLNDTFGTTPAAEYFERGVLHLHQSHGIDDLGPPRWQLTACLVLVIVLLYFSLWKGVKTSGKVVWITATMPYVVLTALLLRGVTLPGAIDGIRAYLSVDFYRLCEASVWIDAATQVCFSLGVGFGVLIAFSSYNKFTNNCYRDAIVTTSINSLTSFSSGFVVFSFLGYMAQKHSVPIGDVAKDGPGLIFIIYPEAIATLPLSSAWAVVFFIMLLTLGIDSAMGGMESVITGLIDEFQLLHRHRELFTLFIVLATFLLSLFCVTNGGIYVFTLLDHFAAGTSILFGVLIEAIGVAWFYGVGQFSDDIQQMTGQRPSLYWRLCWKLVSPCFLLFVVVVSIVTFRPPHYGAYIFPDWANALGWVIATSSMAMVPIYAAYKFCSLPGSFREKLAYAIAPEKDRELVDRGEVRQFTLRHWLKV
smiles,measurement,setting,value
"OCCc1cc(-c2cncc(OC[C@@H]3CCN3)c2)on1 [LF-3-88, 2-[5-[5-(2(S)-azetidinylmethoxyl)-3-pyridyl]-3-isoxazolyl]ethanol]",inhibition at 10 µM,[1],18.6%
same,inhibition at 10 µM,β1 adrenergic receptor,1.7%
same,inhibition at 10 µM,M4 muscarinic receptor,-3.6%
same,inhibition at 10 µM,H1 histamine receptor,-6%
same,agonist activity at α7-nAChRs (whole-cell),human α7-nAChRs,no agonist activity
same,effect of coapplication with choline at α7-nAChRs (whole-cell),human α7-nAChRs; 10 mmol/L choline,no effect
same,inhibition of activation by 10 mmol/L choline at α7-nAChRs (whole-cell),human α7-nAChRs; 2-min pretreatment,slightly inhibit; also recorded: only weakly
same,inhibition at 10 µM,α1B adrenergic receptor,-1.8%
same,immobility in forced swim test,"Male Balb/CJ mice; 1, 3, and 10 mg/kg, p.o.",decreased immobility; also recorded: reduce the immobility dose-dependently
same,immobility in forced swim test,"Male Balb/CJ mice; 1 and 3 mg/kg, i.p., 30 min pretreatment, 6-min trial, vs water",decreased immobility; also recorded: dose-dependently reduced immobility
same,minimum effective dose in forced swim test,Male Balb/CJ mice; i.p.,1 mg/kg
